In ChEMBL document CHEMBL1158797, “Alkaloids and aromatics of Cyathobasis fruticulosa (Bunge) Aellen” (2005):

Legend:
[1] = system: A2780; assay: Cytotoxicity against human A2780 cells; type: functional
[2] = system: Saccharomyces cerevisiae; assay: Antifungal activity against Saccharomyces cerevisiae RS321NpRAD52 by microtiter yeast assay; type: functional, organism-based
[3] = system: Saccharomyces cerevisiae; assay: Antifungal activity against Saccharomyces cerevisiae RS321NYCp50 by microtiter yeast assay; type: functional, organism-based

## CN1CCc2c([nH]c3ccccc23)C1
[1]
  Activity: 38%

## CN(C)CCc1ccc(O)cc1 [HORDENINE]
[1]
  Activity: 39%

## CN(C=O)CCc1ccc(O)cc1
[2]
  Activity: Dose-dependent effect
[3]
  Activity: Dose-dependent effect
